In patent US9115117B2, “Substituted piperidine compounds and their use as orexin receptor modulators” (JANSSEN PHARMACEUTICA NV, priority 2013, dated 2015):
Counter-ions that a name gives are not always drawn.

Columns and labels:
human orexin 2 receptor = human orexin 2 receptor (Homo sapiens (Human), UniProt O43614); experiment: Human orexin 2 receptor radioligand binding ([3H]-EMPA); details: HEK293 stably expressing human orexin 2 receptor; [3H]-EMPA; apparent Ki; read-out: hOX2 Ki
Summary of the method: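 Competition binding with 2 nM final [3H]-EMPA in PBS against homogenized whole-cell suspension; DMSO ≤0.1%. Nonspecific binding defined with […] almorexant. Plates washed with PBS, dried, and bound radioactivity counted by scintillation.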

human orexin 1 receptor = human orexin 1 receptor (Homo sapiens, UniProt O43613); experiment: Human orexin 1 receptor radioligand binding; details: CHO cells stably expressing human orexin 1 receptor; apparent Ki; read-out: hOX1 Ki
Summary of the method: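 Homogenized CHO cells stably expressing human orexin 1 receptor, in PBS. They were incubated 60 min at room temperature with 4 nM final tritiated thiazolyl-pyrrolidinyl-methanone radioligand, DMSO ≤0.1%. Nonspecific binding taken with 10 μM almorexant; bound radioactivity collected by GF/C filtration and scintillation-counted.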

rat orexin 1 receptor = rat orexin 1 receptor (Rattus norvegicus, UniProt P56718); experiment: Rat orexin 1 receptor radioligand binding; details: HEK293 cells stably expressing rat orexin 1 receptor; apparent Ki; read-out: rOX1 Ki
Summary of the method: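 Homogenized cell suspensions competed against 4 nM final of a tritiated oxadiazolyl-pyrrolidinyl thiazole methanone radioligand (35.3 Ci/mmol) in PBS, with DMSO ≤0.1%. Nonspecific binding defined with 10 μM almorexant; after washing and drying, bound radioactivity counted by scintillation.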

Chain of human orexin 2 receptor (O43614 whole entry): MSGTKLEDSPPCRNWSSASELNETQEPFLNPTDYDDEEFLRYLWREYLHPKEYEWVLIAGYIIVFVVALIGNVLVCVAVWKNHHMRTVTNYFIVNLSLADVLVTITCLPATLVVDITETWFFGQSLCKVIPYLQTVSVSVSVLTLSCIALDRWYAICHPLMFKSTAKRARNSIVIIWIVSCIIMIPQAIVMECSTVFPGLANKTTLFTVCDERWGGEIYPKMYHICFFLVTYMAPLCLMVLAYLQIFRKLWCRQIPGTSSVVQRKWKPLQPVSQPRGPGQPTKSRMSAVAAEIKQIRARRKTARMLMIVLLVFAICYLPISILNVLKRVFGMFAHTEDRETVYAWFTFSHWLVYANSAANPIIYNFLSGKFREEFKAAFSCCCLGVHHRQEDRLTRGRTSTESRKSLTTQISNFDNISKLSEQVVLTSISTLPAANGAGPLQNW

Ki (human orexin 2 receptor) | Ki (human orexin 1 receptor) | Ki (rat orexin 1 receptor) | SMILES
920 nM | 9 nM | 15 nM | Cc1ccc(C(=O)N2CCC[C@@H](Nc3ccc(C(F)(F)F)cn3)[C@@H]2C)c(-n2nccn2)c1 (racemic) [Example 13, (±)-trans-(4-methyl-2-(2H-1,2,3-triazol-2-yl)phenyl)(2-methyl-3-((5-(trifluoromethyl)pyridin-2-yl)amino)piperidin-1-yl)methanone]
6400 nM | 58 nM | 53 nM | COc1ccc(C(=O)N2CCC[C@@H](Nc3cnc(C(F)(F)F)cn3)[C@@H]2C)c(-n2nccn2)c1 [Example 82, (4-methoxy-2-(2H-1,2,3-triazol-2-yl)phenyl)((2S,3R)-2-methyl-3-((5-(trifluoromethyl)pyrazin-2-yl)amino)piperidin-1-yl)methanone]
529 nM | 25 nM | 18 nM | C[C@H]1[C@H](Nc2cnc(C(F)(F)F)cn2)CCCN1C(=O)c1ccccc1-n1nccn1 (racemic) [Example 38, (±)-trans-(2-(2H-1,2,3-triazol-2-yl)phenyl)(2-methyl-3-((5-(trifluoromethyl)pyrazin-2-yl)amino)piperidin-1-yl)methanone]
1300 nM | 62 nM | 54 nM | Cc1ccc(C(=O)N2CCC[C@@H](Nc3nc4ccccc4o3)[C@@H]2C)c(-n2ccnn2)n1 [Example 76, ((2S,3R)-3-(benzo[d]oxazol-2-ylamino)-2-methylpiperidin-1-yl)(6-methyl-2-(1H-1,2,3-triazol-1-yl)pyridin-3-yl)methanone]
7000 nM | 53 nM | 57 nM | Cc1cnc(C(=O)N2CCC[C@@H](Nc3cnc(C(F)(F)F)cn3)[C@@H]2C)c(-c2ncco2)c1 [Example 83, ((2S,3R)-2-methyl-3-((5-(trifluoromethyl)pyrazin-2-yl)amino)piperidin-1-yl)(5-methyl-3-(oxazol-2-yl)pyridin-2-yl)methanone]
> 10000 nM | 446 nM | 215 nM | Cc1cnc(C(=O)N2CCC[C@@H](Oc3ncc(C(F)(F)F)cn3)[C@@H]2C)c(-n2nccn2)c1 [Example 101, ((2S,3R)-2-methyl-3-((5-(trifluoromethyl)pyrimidin-2-yl)oxy)piperidin-1-yl)(5-methyl-3-(2H-1,2,3-triazol-2-yl)pyridin-2-yl)methanone]
4900 nM | 24 nM | 29 nM | Cc1cnc(C(=O)N2CCC[C@@H](Nc3ccc(Br)cn3)[C@@H]2C)c(-c2ncco2)c1 [Example 80, ((2S,3R)-3-((5-bromopyridin-2-yl)amino)-2-methylpiperidin-1-yl)(5-methyl-3-(oxazol-2-yl)pyridin-2-yl)methanone]
2100 nM | 48 nM | 32 nM | Cc1ccc(C(=O)N2CCC[C@@H](Nc3ncc(Cl)cn3)[C@@H]2C)c(-n2nccn2)c1 [Example 91, ((2S,3R)-3-((5-chloropyrimidin-2-yl)amino)-2-methylpiperidin-1-yl)(4-methyl-2-(2H-1,2,3-triazol-2-yl)phenyl)methanone]
5200 nM | 25 nM | 28 nM | Cc1ccc(C(=O)N2CCC[C@@H](Oc3ncc(C(F)(F)F)cn3)[C@@H]2C)c(-n2nccn2)c1 [Example 102, (4-methyl-2-(2H-1,2,3-triazol-2-yl)phenyl)((2S,3R)-2-methyl-3-((5-(trifluoromethyl)pyrimidin-2-yl)oxy)piperidin-1-yl)methanone]
> 10000 nM | 173 nM | 119 nM | Cc1ccc(-n2nccn2)c(C(=O)N2CCC[C@@H](Oc3ncc(C(F)(F)F)cn3)[C@@H]2C)n1 [Example 104, ((2S,3R)-2-methyl-3-((5-(trifluoromethyl)pyrimidin-2-yl)oxy)piperidin-1-yl)(6-methyl-3-(2H-1,2,3-triazol-2-yl)pyridin-2-yl)methanone]
2300 nM | 97 nM | 44 nM | C[C@H]1[C@H](Oc2ncc(C(F)(F)F)cn2)CCCN1C(=O)c1ccccc1-n1nccn1 [Example 103, (2-(2H-1,2,3-triazol-2-yl)phenyl)((2S,3R)-2-methyl-3-((5-(trifluoromethyl)pyrimidin-2-yl)oxy)piperidin-1-yl)methanone]

SMILES | Ki (human orexin 2 receptor) | Ki (human orexin 1 receptor) | Ki (rat orexin 1 receptor)
Cc1ccc(C(=O)N2CCC[C@@H](Nc3nc4ccccc4o3)[C@@H]2C)c(-n2nccn2)n1 [Example 75, ((2S,3R)-3-(benzo[d]oxazol-2-ylamino)-2-methylpiperidin-1-yl)(6-methyl-2-(2H-1,2,3-triazol-2-yl)pyridin-3-yl)methanone] | 9500 nM | 40 nM | 23 nM
Cc1ccc(-c2ncco2)c(C(=O)N2CCC[C@@H](Nc3ccc(C(F)(F)F)cn3)[C@@H]2C)n1 (racemic) [Example 22, (±)-trans-(2-methyl-3-((5-(trifluoromethyl)pyridin-2-yl)amino)piperidin-1-yl)(6-methyl-3-(oxazol-2-yl)pyridin-2-yl)methanone hydrochloride] | 422 nM | 19 nM | 33 nM
